# Reference: paper PMC11984392, “EphA2-targeted alpha-particle theranostics for enhancing PDAC treatment” (Theranostics, 2025)
# Where two headings read alike, the source gives them in different places. *1 amine or outer side, *2 acyl side, *3 side chain or, on linkers, in order; H or OH if unused. Where a SMILES comes first, the peptide text is derived from it. Bridges are numbered along the chain shown (N, C = ends). [ ]: non-standard residue; d: D form. The star is where a group is joined. TATA = O=C(CC[*:1])N1CN(C(=O)CC[*:2])CN(C(=O)CC[*:3])C1; NOTA = O=C(O)CN1CCN(CC(=O)O)CCN(CC(=O)*)CC1; Hyp = O=C(O)[C@@H]1C[C@@H](O)CN1; hArg = N=C(N)NCCCC[C@H](N)C(=O)O; PEG2 = NCCOCCOCCC(=O)O; Sar = CNCC(=O)O
# What was measured:
# [1] = PET-MR imaging of Panc1 orthotopic tumor model; format: in vivo, mice; settings: both sexes, NSG, mouse, iv, total radioactivity, PET/MR 60 min p.i., ROI (n = 4)
# Protocol: Animal studies were performed under Johns Hopkins University Animal Care and Use Committee (ACUC)-approved protocol (Principal investigator: Sridhar Nimmagadda, Ph.D. and Protocol number M021M175). Male and Female NSG mice (5-6 weeks old) were purchased from JHU immunocompromised core and used to establish xenografts by administering cells subcutaneously (top right flank, unless otherwise noted) to form various tumor models within 3-4 weeks. Following cell numbers were used: Panc1, AsPC1, BxPC3 (1 M), Hs766T and SU8686 (2 M), CFPAC and Panc1005 (5 M). Imaging or biodistribution studies (n = 3-5) were conducted on mice with tumor volumes of 100-200 mm^3. The Panc1 orthotopic tumor model was established by surgically implanting a 3-5 mm^3 section of Panc1 tumor xenograft directly onto the pancreas. The implanted tumors were allowed to grow and were ready for imaging after 10 days of implantation.
# Mice having orthotopic panc1 tumors were injected intravenously with [^68Ga]AJ201 and PET images were acquired at 60 min after radiotracer injection for 10 min in 1 bed positions (full body) and whole-body MRI using a Simultaneous 7T Bruker PET-MR. The PET data were acquired, reconstructed, and corrected for radioactive decay using ParaVision 360 V2 by Bruker. The %ID per cc values were obtained after drawing ROI (regain of interest) in tumor and muscle using PMOD software. […]
# [2] = Human radiation dosimetry estimates (MIRDCalc)
# Source text: Pharmacokinetic data obtained from biodistribution studies of Panc1 tumor-bearing mice were utilized to predict the time-integrated activity coefficients (TIACs, formerly known as residence times) of [^68Ga]AJ201 in humans, as previously described [28]-[30]. These TIAC estimates were then input into MIRDCalc to determine the absorbed dose coefficients for organs from ^68Ga using the ICRP adult female reference phantom (Table S4).
# Jurkat cells = test: In vitro binding assay with Ga-68 radiotracer; format: cell-based, human; settings: Jurkat (negative control cells); 1 µCi, 60 min, 4 °C; mean ± SD (n = 3-4)
# Protocol: (§1) In vitro binding assays were performed to determine the binding of [^68Ga]AJ201 and [^68Ga]AJ210 to Jurkat and PDAC cell lines. Approximately 1 μCi of radiotracer was incubated with cells in 100 μL culture media for 60 min at 4 °C. After incubation, cells were washed three times with ice cold PBS and counted on an automated gamma counter (1282 Compugamma CS, Pharmacia/LKBNuclear, Inc., Gaithersburg, MD). […] For kinetic study, 8×10^6 Panc1 cells/vial were incubated with approximately 8 μCi/vial of [^68Ga]AJ201 in culture media in triplicates at 37 °C and 4 °C in separate tubes. 1×10^6 cells were aliquoted at predetermined timepoints (5, 15, 30, 60 min). Excess radioactivity was removed by washing three times with PBS. Activity in cell pellets were measured on an automated gamma counter.
# Hs766T cells = test: In vitro binding assay with Ga-68 radiotracer; format: cell-based, human; settings: 1 µCi, 60 min, 4 °C, mean ± SD (n = 3-4)
# Protocol: as §1
# AsPC1 cells = test: In vitro binding assay with Ga-68 radiotracer; format: cell-based, human; settings: 1 µCi, 60 min, 4 °C, mean ± SD (n = 3-4)
# Protocol: as §1
# CFPAC cells = test: In vitro binding assay with Ga-68 radiotracer; format: cell-based, human; settings: 1 µCi, 60 min, 4 °C, mean ± SD (n = 3-4)
# Protocol: as §1
# BxPC3 cells = test: In vitro binding assay with Ga-68 radiotracer; format: cell-based, human; settings: 1 µCi, 60 min, 4 °C, mean ± SD (n = 3-4)
# Protocol: as §1
# Panc1005 cells = test: In vitro binding assay with Ga-68 radiotracer; format: cell-based, human; settings: 1 µCi, 60 min, 4 °C, mean ± SD (n = 3-4)
# Protocol: as §1
# Panc1 cells = test: In vitro binding assay with Ga-68 radiotracer; format: cell-based, human
# Protocol: as §1
# Su8686 cells = test: In vitro binding assay with Ga-68 radiotracer; format: cell-based, human; settings: 1 µCi, 60 min, 4 °C, mean ± SD (n = 3-4)
# Protocol: as §1
# KPC syngeneic tumor = test: Ex vivo biodistribution; format: in vivo, mice; settings: KPC syngeneic tumor; 60 min p.i.; mean ± SEM (n = 5)
# Protocol: Mice with 100-200 mm^3 tumor volume were used for ex vivo biodistribution studies. For radiotracer pharmacokinetics and dosimetry studies, mice with Panc1 tumor xenograft received ~80 µCi (2.96 MBq) [^68Ga]AJ201 and were sacrificed at pre-determined time points (5, 30, 60, 90 and 120 min). All other mice were injected with ~50 µCi (1.85 MBq; 0.2 to 0.5 nmol) Ga-68 labeled radiotracer and were sacrificed at 60 min. The selected tissues were collected, weighed, counted, and their %ID/g values calculated for biodistribution analysis. For pharmacokinetics and dosimetry studies, selected tissues included blood, muscle, tumor, thymus, heart, lung, liver, pancreas, stomach, small intestine, large intestine, spleen, adrenals, kidney, bladder, femur, brain and tumor xenografts. For other studies, selected tissues were blood, muscle, tumor, heart, lung, liver, pancreas, small intestine, spleen, kidney.
# [3] = absorbed dose coefficient, MIRDCalc, ICRP adult female reference phantom
# [4] = absorbed dose coefficient, MIRDCalc, ICRP adult female reference phantom, listed as [68Ga]AJ201
# [5] = predicted for humans from Panc1 mouse biodistribution
compound,measurement,setting,value
"CC(C)C[C@@H]1NC(=O)[C@@H]2CSCCC(=O)N3CN(CN(C3)C(=O)CCSC[C@H](NC(=O)[C@H](CC(=O)O)NC(=O)[C@H](CCCCNC(=N)N)NC(=O)[C@H](C)NC(=O)CNC(=O)CN(C)C(=O)CN(C)C(=O)CN(C)C(=O)[C@H](CCCNC(=N)N)NC(=O)CNC(=O)CCOCCOCCNC(=O)CN3CCN(CC(=O)O)CCN(CC(=O)O)CC3)C(=O)N3C[C@H](O)C[C@H]3C(=O)N[C@@H](CC(C)C)C(=O)N[C@@H](C(C)C)C(=O)N[C@@H](CC(N)=O)C(=O)N3CCC[C@H]3C(=O)N[C@@H](CC(C)C)C(=O)N2)C(=O)CCSC[C@@H](C(N)=O)NC(=O)[C@H](CCCCNC(=N)N)NC(=O)[C@H](Cc2c[nH]c3ccccc23)NC(=O)[C@@H](CC(=O)O)NC(=O)[C@@H]2CCCN2C(=O)[C@H](Cc2c[nH]cn2)NC1=O [[^68Ga]AJ201, metal not drawn] ({NOTA-PEG2}-GR[Sar][Sar][Sar]GA[hArg]DC[Hyp]LVNPLCLHP[dD]W[hArg]C-NH2; linker 10-17-24 via TATA)",tissue to tissue ratio at 1 h,"[1]; tumor and muscle, read-out: Tumor-to-muscle ratio",14.8 ± 4.46
same,tissue to tissue ratio at 1 h,"[1]; tumor and pancreas, read-out: Tumor-to-pancreas ratio",10.3 ± 2.24
same,"Organ dose, Adrenals",[2]; [3],0.06 rem/mCi
same,"Organ dose, Bladder",[2]; [3],0.15 rem/mCi
same,"Organ dose, Brain",[2]; [3],0.003215 rem/mCi
same,"Organ dose, Femur",[2]; [3],0.01421 rem/mCi
same,"Organ dose, Heart",[2]; [3],0.03275 rem/mCi
same,"Organ dose, Kidney",[2]; [3],0.38 rem/mCi
same,"Organ dose, Large Intestine",[2]; [3],0.01839 rem/mCi
same,"Organ dose, Liver",[2]; [3],0.02398 rem/mCi
same,"Organ dose, Lung",[2]; [3],0.04 rem/mCi
same,"Organ dose, Muscle",[2]; [3],0.00962 rem/mCi
same,"Organ dose, Pancreas",[2]; [3],0.02708 rem/mCi
same,"Organ dose, Small intestine",[2]; [3],0.01639 rem/mCi
same,"Organ dose, Spleen",[2]; [3],0.03644 rem/mCi
same,"Organ dose, Stomach with contents",[2]; [3],0.0158 rem/mCi
same,"Organ dose, Thymus",[2]; [3],0.02016 rem/mCi
same,"Organ dose, Adrenals",[2]; [4],0.06253 rem/mCi
same,"Organ dose, Bladder",[2]; [4],0.1513 rem/mCi
same,"Organ dose, Kidney",[2]; [4],0.3885 rem/mCi
same,"Organ dose, Lung",[2]; [4],0.04292 rem/mCi
same,Estimated effective dose equivalent,"[2]; at 13 mCi dose, human estimate",less than 5 rem
same,Dose that can be safely administered for PET imaging,[2]; human estimate,13 mCi
same,"Residence time (TIAC), Adrenals",[2]; [5],0.0002761 h
same,"Residence time (TIAC), Bladder",[2]; [5],0.006394 h
same,"Residence time (TIAC), Blood",[2]; [5],0.05152 h
same,"Residence time (TIAC), Brain",[2]; [5],0.0008446 h
same,"Residence time (TIAC), Femur",[2]; [5],0.005607 h
same,"Residence time (TIAC), Heart",[2]; [5],0.001764 h
same,"Residence time (TIAC), Kidney",[2]; [5],0.08395 h
same,"Residence time (TIAC), Large Intestine",[2]; [5],0.001341 h
same,"Residence time (TIAC), Liver",[2]; [5],0.01723 h
same,"Residence time (TIAC), Lung",[2]; [5],0.01099 h
same,"Residence time (TIAC), Muscle",[2]; [5],0.07064 h
same,"Residence time (TIAC), Pancreas",[2]; [5],0.0006321 h
same,"Residence time (TIAC), Small intestine",[2]; [5],0.003647 h
same,"Residence time (TIAC), Spleen",[2]; [5],0.002451 h
same,"Residence time (TIAC), Stomach with contents",[2]; [5],0.0004823 h
same,"Residence time (TIAC), Thymus",[2]; [5],0.0002384 h
same,Cell binding (percent incubated activity),Jurkat cells,0.8 ± 0.1 %IA
same,Cell binding (percent incubated activity),Hs766T cells,7.2 ± 0.6 %IA
same,Cell binding (percent incubated activity),AsPC1 cells,9.9 ± 1.2 %IA
same,Cell binding (percent incubated activity),CFPAC cells,1.7 ± 0.3 %IA
same,Cell binding (percent incubated activity),BxPC3 cells,5.9 ± 0.2 %IA
same,Cell binding (percent incubated activity),Panc1005 cells,4.7 ± 0.1 %IA
same,Time to uptake stabilization in Panc1 cells,"Panc1 cells; 4 °C, time points 5, 15, 30, 60 min",around 30 min
same,Time to uptake equilibrium in Panc1 cells,"Panc1 cells; 37 °C, time points 5, 15, 30, 60 min",≤ 15 min
same,Reduction of binding to Panc1 cells by blocking,"Panc1 cells; in the presence of non-radioactive AJ201 (2 µM), P<0.0001",more than 95%
same,Cell binding (percent incubated activity),Su8686 cells,22.0 ± 1.1 %IA
same,Brain uptake,KPC syngeneic tumor,0.04 ± 0.01 %ID/g
